Among the data in the kinase profiling compilation of Christmann-Franck et al. (2016) are residual activity values, retold here.

Chain of HIPK2 (human) (Q9H2X6 whole entry, looked up): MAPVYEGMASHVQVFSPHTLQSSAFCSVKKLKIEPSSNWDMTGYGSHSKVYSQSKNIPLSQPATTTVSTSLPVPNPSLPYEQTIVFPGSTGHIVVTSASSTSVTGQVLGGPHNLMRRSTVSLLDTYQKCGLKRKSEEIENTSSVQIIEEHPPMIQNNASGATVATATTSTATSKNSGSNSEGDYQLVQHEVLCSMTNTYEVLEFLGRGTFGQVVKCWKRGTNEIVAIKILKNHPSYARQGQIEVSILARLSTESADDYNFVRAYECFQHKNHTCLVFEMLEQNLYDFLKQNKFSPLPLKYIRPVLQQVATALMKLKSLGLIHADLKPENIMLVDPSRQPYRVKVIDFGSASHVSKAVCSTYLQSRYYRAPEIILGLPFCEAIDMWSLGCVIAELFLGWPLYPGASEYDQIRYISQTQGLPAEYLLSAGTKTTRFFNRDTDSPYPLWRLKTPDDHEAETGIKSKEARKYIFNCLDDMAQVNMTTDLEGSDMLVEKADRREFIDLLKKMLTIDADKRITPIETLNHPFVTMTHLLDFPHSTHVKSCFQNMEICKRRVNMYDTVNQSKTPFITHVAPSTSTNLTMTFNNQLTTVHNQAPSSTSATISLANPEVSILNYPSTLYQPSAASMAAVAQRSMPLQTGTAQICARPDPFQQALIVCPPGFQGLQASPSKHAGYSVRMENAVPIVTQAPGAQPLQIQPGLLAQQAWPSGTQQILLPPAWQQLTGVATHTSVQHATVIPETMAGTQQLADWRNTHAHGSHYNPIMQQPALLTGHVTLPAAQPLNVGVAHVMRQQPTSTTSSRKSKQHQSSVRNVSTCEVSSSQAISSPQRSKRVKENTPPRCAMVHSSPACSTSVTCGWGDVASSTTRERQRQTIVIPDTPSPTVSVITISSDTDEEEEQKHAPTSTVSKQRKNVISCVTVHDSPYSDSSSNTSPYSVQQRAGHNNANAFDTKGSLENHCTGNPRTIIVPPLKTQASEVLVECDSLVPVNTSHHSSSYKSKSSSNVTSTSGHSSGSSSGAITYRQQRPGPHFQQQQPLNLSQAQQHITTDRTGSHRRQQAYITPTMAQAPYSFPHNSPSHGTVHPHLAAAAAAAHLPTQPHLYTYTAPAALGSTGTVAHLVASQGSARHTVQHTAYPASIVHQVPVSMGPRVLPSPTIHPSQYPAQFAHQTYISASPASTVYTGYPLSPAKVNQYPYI
Chain of CSK (human) (P41240 whole entry, looked up): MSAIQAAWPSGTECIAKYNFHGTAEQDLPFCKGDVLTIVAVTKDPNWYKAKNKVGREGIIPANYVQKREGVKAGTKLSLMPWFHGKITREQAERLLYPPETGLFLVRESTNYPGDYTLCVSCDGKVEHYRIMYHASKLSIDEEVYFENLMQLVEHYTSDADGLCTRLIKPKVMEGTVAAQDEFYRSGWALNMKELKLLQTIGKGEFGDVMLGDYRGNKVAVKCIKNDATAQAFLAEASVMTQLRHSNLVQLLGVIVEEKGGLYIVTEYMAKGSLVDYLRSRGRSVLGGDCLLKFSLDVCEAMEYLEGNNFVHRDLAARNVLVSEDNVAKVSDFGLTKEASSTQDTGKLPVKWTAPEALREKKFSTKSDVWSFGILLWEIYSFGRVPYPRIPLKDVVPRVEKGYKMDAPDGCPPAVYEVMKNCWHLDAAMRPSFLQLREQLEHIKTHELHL

One experiment concerns the target CDK5 CDK5R1 p35 (human) (UniProt Q00535+Q15078). Put plainly: radiometric filter-binding kinase assay, Kinase HotSpot. As to conditions: compound 0.5 µM; ATP 10 µM.
Take `O=c1cc(N2CCOCC2)oc2c1ccc1ccccc12`: the residual activity (in general, the signal under treatment as a percentage of the control signal) amounted to 96.7%.
On the same count and under the same terms, to `CC#CC(=O)Nc1cc2c(Nc3ccc(F)c(Cl)c3)ncnc2cn1` belongs 97.9%; to `CC(=O)c1ccc(N2CCOCC2)cc1O`, 97.1%.

The target of the next experiment is BRSK2 (human) (UniProt Q8IWQ3). Described as above. As to conditions: compound 0.5 µM; ATP 10 µM.
Chain of BRSK2 (human) (Q8IWQ3 whole entry, looked up): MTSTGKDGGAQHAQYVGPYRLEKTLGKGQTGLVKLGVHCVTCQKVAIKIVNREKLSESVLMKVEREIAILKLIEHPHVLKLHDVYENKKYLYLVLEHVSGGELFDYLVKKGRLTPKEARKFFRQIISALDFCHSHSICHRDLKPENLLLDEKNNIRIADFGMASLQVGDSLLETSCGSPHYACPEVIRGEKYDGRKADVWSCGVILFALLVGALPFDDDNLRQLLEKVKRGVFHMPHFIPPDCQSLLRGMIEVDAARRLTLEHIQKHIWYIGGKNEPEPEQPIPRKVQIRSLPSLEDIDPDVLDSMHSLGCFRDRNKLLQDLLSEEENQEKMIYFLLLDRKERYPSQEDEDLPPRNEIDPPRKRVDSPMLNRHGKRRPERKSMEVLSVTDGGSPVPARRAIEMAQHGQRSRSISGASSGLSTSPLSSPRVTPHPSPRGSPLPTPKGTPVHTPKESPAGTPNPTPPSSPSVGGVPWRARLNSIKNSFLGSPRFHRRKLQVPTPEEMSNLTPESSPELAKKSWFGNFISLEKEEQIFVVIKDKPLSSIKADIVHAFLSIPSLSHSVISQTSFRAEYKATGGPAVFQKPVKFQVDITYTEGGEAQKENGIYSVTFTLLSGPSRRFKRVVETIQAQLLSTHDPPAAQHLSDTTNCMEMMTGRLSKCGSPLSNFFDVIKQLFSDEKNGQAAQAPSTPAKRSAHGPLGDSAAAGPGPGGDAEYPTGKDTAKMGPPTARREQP
In the case of `O=c1cc(N2CCOCC2)oc2c1ccc1ccccc12`, the residual activity was determined as 92.6%.
The same measure, in the same setting: to `CC#CC(=O)Nc1cc2c(Nc3ccc(F)c(Cl)c3)ncnc2cn1` belongs 93.3%; to `CC(=O)c1ccc(N2CCOCC2)cc1O`, 100%.

Another experiment concerns the target MERTK (human) (UniProt Q12866). Described as above. The conditions noted are these: compound 0.5 µM; ATP 10 µM.
As for `O=c1cc(N2CCOCC2)oc2c1ccc1ccccc12`, the residual activity amounted to 96.4%.
Same read-out and setting: under `CC#CC(=O)Nc1cc2c(Nc3ccc(F)c(Cl)c3)ncnc2cn1` stands 84.5%.
In the case of `CC(=O)c1ccc(N2CCOCC2)cc1O`, the residual activity was determined as 101%.

For a further experiment, the target named is RPS6KB2 (human) (UniProt Q9UBS0). The experiment is described as above. The conditions noted are these: compound 0.5 µM; ATP 10 µM.
For `O=c1cc(N2CCOCC2)oc2c1ccc1ccccc12`, the residual activity stood at 99.6%.
Still for that read-out and setting: under `CC#CC(=O)Nc1cc2c(Nc3ccc(F)c(Cl)c3)ncnc2cn1` stands 97.2%; under `CC(=O)c1ccc(N2CCOCC2)cc1O`, 101%.

The target of the next experiment is MYLK2 (human) (UniProt Q9H1R3). The description is as above. The conditions noted are these: compound 0.5 µM; ATP 10 µM.
Regarding `O=c1cc(N2CCOCC2)oc2c1ccc1ccccc12`, the residual activity was 97.7%.
Still for that read-out and setting: under `CC#CC(=O)Nc1cc2c(Nc3ccc(F)c(Cl)c3)ncnc2cn1` stands 99.9%.
Still for that read-out and setting: to `CC(=O)c1ccc(N2CCOCC2)cc1O` belongs 98.6%.

A further experiment concerns the target HIPK2 (human) (UniProt Q9H2X6). Described as above. As to conditions: compound 0.5 µM; ATP 10 µM.
Take `O=c1cc(N2CCOCC2)oc2c1ccc1ccccc12`: the residual activity amounted to 105%.
The same measure, in the same setting: to `CC#CC(=O)Nc1cc2c(Nc3ccc(F)c(Cl)c3)ncnc2cn1` belongs 101%; to `CC(=O)c1ccc(N2CCOCC2)cc1O`, 106%.

The target in the next experiment is ACVR1 (human) (UniProt Q04771). Described as above. As to conditions: compound 0.5 µM; ATP 10 µM.
Chain of ACVR1 (human) (Q04771 whole entry, looked up): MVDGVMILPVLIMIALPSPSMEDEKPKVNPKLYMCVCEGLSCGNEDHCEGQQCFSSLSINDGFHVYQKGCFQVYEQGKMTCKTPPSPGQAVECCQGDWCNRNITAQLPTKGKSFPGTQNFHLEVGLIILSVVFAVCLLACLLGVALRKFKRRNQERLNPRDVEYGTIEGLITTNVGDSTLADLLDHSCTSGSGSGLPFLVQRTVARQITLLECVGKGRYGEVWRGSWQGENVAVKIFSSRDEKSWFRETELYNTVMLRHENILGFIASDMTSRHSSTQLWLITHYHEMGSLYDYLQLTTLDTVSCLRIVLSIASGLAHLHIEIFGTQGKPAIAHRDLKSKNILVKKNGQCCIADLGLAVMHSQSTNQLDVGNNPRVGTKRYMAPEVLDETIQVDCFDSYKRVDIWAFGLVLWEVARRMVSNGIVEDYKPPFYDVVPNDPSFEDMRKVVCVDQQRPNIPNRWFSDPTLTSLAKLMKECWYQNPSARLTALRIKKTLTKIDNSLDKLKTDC
`O=c1cc(N2CCOCC2)oc2c1ccc1ccccc12`: the residual activity was 107%.
Still for that read-out and setting: under `CC#CC(=O)Nc1cc2c(Nc3ccc(F)c(Cl)c3)ncnc2cn1` stands 105%.
Turning to `CC(=O)c1ccc(N2CCOCC2)cc1O`, the residual activity worked out at 107%.

For a further experiment, the target named is DSTYK (human) (UniProt Q6XUX3). The description is as above. The conditions noted are these: compound 0.5 µM; ATP 10 µM.
Consider `O=c1cc(N2CCOCC2)oc2c1ccc1ccccc12`, for which the residual activity was 110%.
Same read-out and setting: under `CC#CC(=O)Nc1cc2c(Nc3ccc(F)c(Cl)c3)ncnc2cn1` stands 91.1%; under `CC(=O)c1ccc(N2CCOCC2)cc1O`, 95.3%.

Another experiment concerns the target HCK (human) (UniProt P08631). The description is as above. As to conditions: compound 0.5 µM; ATP 10 µM.
Turning to `O=c1cc(N2CCOCC2)oc2c1ccc1ccccc12`, the residual activity was 114%.
On the same count and under the same terms, under `CC#CC(=O)Nc1cc2c(Nc3ccc(F)c(Cl)c3)ncnc2cn1` stands 92.2%.
As to `CC(=O)c1ccc(N2CCOCC2)cc1O`, the residual activity was found to be 116%.

The next experiment has as its target MINK1 (human) (UniProt Q8N4C8). Described as above. As to conditions: compound 0.5 µM; ATP 10 µM.
For `O=c1cc(N2CCOCC2)oc2c1ccc1ccccc12`, the residual activity is 96%.
On the same count and under the same terms, under `CC#CC(=O)Nc1cc2c(Nc3ccc(F)c(Cl)c3)ncnc2cn1` stands 91.9%.
Same read-out and setting: under `CC(=O)c1ccc(N2CCOCC2)cc1O` stands 94.3%.

A further experiment concerns the target CSK (human) (UniProt P41240). The experiment is described as above. As to conditions: compound 0.5 µM; ATP 10 µM.
For `O=c1cc(N2CCOCC2)oc2c1ccc1ccccc12`, the residual activity is 101%.
Still for that read-out and setting: to `CC#CC(=O)Nc1cc2c(Nc3ccc(F)c(Cl)c3)ncnc2cn1` belongs 100%; to `CC(=O)c1ccc(N2CCOCC2)cc1O`, 99.1%.

The target of a further experiment is MAPK13 (human) (UniProt O15264). The experiment is described as above. The conditions noted are these: compound 0.5 µM; ATP 10 µM.
Chain of MAPK13 (human) (O15264 whole entry, looked up): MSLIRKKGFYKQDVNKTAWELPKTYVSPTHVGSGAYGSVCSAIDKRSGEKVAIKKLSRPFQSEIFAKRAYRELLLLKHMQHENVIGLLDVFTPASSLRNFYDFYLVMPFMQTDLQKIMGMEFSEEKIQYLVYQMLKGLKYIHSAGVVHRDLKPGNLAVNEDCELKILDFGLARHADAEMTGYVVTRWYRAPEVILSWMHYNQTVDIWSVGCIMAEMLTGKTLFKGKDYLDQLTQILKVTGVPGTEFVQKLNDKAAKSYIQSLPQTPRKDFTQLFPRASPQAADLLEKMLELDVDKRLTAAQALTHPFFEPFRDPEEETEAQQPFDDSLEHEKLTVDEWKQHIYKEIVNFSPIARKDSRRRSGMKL
With `O=c1cc(N2CCOCC2)oc2c1ccc1ccccc12`, the residual activity was 99.8%.
Same read-out and setting: to `CC#CC(=O)Nc1cc2c(Nc3ccc(F)c(Cl)c3)ncnc2cn1` belongs 105%; to `CC(=O)c1ccc(N2CCOCC2)cc1O`, 104%.

In another experiment the target is TGFBR1 (human) (UniProt P36897). The experiment is described as above. The conditions noted are these: compound 0.5 µM; ATP 10 µM.
Take `O=c1cc(N2CCOCC2)oc2c1ccc1ccccc12`: the residual activity worked out at 98.5%.
Still for that read-out and setting: to `CC#CC(=O)Nc1cc2c(Nc3ccc(F)c(Cl)c3)ncnc2cn1` belongs 98.7%.
On the same count and under the same terms, to `CC(=O)c1ccc(N2CCOCC2)cc1O` belongs 96.6%.

The next experiment deals with EPHB4 (human) (UniProt P54760). Described as above. As to conditions: compound 0.5 µM; ATP 10 µM.
Consider `O=c1cc(N2CCOCC2)oc2c1ccc1ccccc12`, for which the residual activity came to 96.3%.
On the same count and under the same terms, to `CC#CC(=O)Nc1cc2c(Nc3ccc(F)c(Cl)c3)ncnc2cn1` belongs 83.4%; to `CC(=O)c1ccc(N2CCOCC2)cc1O`, 97.6%.

For the next experiment, the target named is PRKCG (human) (UniProt P05129). The description is as above. As to conditions: compound 0.5 µM; ATP 10 µM.
Take `O=c1cc(N2CCOCC2)oc2c1ccc1ccccc12`: the residual activity was determined as 101%.
Same read-out and setting: to `CC#CC(=O)Nc1cc2c(Nc3ccc(F)c(Cl)c3)ncnc2cn1` belongs 97.2%.
Take `CC(=O)c1ccc(N2CCOCC2)cc1O`: the residual activity stood at 98.7%.

A further experiment concerns the target TAOK2 (human) (UniProt Q9UL54). The experiment is described as above. The conditions noted are these: compound 0.5 µM; ATP 10 µM.
In the case of `O=c1cc(N2CCOCC2)oc2c1ccc1ccccc12`, the residual activity amounted to 108%.
Same read-out and setting: under `CC#CC(=O)Nc1cc2c(Nc3ccc(F)c(Cl)c3)ncnc2cn1` stands 106%; under `CC(=O)c1ccc(N2CCOCC2)cc1O`, 107%.

The next experiment deals with MARK4 (human) (UniProt Q96L34). The description is as above. The conditions noted are these: compound 0.5 µM; ATP 10 µM.
Chain of MARK4 (human) (Q96L34 whole entry, looked up): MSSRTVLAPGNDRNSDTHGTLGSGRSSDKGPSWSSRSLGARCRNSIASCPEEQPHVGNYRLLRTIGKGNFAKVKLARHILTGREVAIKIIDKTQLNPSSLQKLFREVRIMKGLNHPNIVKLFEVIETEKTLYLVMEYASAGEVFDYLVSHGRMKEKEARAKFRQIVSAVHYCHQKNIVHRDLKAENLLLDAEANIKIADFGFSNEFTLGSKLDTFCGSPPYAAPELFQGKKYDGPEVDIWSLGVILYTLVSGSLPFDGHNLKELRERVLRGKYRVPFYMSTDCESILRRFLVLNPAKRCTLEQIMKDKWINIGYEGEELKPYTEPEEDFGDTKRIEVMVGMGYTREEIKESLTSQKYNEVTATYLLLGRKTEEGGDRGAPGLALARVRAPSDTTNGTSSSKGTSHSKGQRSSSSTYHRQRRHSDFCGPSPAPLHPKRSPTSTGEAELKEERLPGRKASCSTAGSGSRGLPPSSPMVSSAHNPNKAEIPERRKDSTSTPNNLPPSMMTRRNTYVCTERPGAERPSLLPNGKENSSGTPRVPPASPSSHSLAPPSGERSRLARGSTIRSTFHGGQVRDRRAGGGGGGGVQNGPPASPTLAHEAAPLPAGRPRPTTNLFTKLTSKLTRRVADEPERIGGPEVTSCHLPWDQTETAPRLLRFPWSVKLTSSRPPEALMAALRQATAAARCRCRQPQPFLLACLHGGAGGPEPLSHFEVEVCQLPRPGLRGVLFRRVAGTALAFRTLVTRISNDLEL
For `O=c1cc(N2CCOCC2)oc2c1ccc1ccccc12`, the residual activity came out at 102%.
On the same count and under the same terms, to `CC#CC(=O)Nc1cc2c(Nc3ccc(F)c(Cl)c3)ncnc2cn1` belongs 101%; to `CC(=O)c1ccc(N2CCOCC2)cc1O`, 99.4%.

The target in a further experiment is IKBKB (human) (UniProt O14920). The description is as above. As to conditions: compound 0.5 µM; ATP 10 µM.
Consider `O=c1cc(N2CCOCC2)oc2c1ccc1ccccc12`, for which the residual activity was 105%.
Still for that read-out and setting: under `CC#CC(=O)Nc1cc2c(Nc3ccc(F)c(Cl)c3)ncnc2cn1` stands 102%; under `CC(=O)c1ccc(N2CCOCC2)cc1O`, 103%.

The next experiment concerns the target CDC42BPA (human) (UniProt Q5VT25). Described as above. As to conditions: compound 0.5 µM; ATP 10 µM.
`O=c1cc(N2CCOCC2)oc2c1ccc1ccccc12`: the residual activity was found to be 87.6%.
Still for that read-out and setting: under `CC#CC(=O)Nc1cc2c(Nc3ccc(F)c(Cl)c3)ncnc2cn1` stands 93.1%; under `CC(=O)c1ccc(N2CCOCC2)cc1O`, 100%.

For the next experiment, the target named is EPHB1 (human) (UniProt P54762). Described as above. The conditions noted are these: compound 0.5 µM; ATP 10 µM.
Chain of EPHB1 (human) (P54762 whole entry, looked up): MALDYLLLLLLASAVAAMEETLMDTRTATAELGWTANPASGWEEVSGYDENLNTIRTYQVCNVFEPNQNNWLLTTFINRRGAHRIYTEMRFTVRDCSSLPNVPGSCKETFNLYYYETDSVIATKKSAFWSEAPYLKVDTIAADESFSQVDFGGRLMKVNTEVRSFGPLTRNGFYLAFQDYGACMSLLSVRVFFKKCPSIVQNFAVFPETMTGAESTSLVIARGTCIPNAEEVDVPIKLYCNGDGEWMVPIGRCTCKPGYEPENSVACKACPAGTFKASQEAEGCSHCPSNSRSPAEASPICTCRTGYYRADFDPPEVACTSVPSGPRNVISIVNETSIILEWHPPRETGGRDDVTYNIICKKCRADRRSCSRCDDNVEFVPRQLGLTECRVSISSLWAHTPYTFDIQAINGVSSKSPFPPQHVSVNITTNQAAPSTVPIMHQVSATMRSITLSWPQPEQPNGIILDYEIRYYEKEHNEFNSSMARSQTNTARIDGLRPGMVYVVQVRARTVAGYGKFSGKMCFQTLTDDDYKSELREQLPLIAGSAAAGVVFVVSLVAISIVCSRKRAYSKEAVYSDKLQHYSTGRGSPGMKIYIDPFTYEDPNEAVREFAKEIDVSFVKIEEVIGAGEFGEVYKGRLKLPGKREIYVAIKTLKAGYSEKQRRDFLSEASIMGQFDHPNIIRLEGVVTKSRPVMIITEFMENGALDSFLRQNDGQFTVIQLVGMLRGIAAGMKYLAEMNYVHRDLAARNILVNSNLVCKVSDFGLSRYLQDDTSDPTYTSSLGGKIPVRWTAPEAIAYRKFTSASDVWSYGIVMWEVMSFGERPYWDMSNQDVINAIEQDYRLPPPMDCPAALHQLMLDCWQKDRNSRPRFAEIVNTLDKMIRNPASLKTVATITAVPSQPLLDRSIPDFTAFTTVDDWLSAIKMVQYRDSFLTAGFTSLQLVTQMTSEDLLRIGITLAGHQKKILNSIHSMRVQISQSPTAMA
With `O=c1cc(N2CCOCC2)oc2c1ccc1ccccc12`, the residual activity was determined as 104%.
Same read-out and setting: under `CC#CC(=O)Nc1cc2c(Nc3ccc(F)c(Cl)c3)ncnc2cn1` stands 92%; under `CC(=O)c1ccc(N2CCOCC2)cc1O`, 103%.

A further experiment concerns the target TYRO3 (human) (UniProt Q06418). Described as above. The conditions noted are these: compound 0.5 µM; ATP 10 µM.
Take `O=c1cc(N2CCOCC2)oc2c1ccc1ccccc12`: the residual activity was 97.3%.
